US20210000966A1, “HSP90-TARGETING CONJUGATES AND FORMULATIONS THEREOF” (TARVEDA THERAPEUTICS, INC., priority 2017, published 2021)
Read-outs that look alike come from different tables or passages of the source.

Key:
[1] = tested on: H1975 cells (non-small cell lung cancer) xenograft; assay: H1975 xenograft study; type: in vivo, mice; details: 12.5 mg/kg twice a week intravenously, Day 19, compared to vehicle control
Protocol: Female athymic nude mice were implanted with 5×10^6 H1975 cells (non-small cell lung cancer) per mouse in the right hind flank. Once tumors reached a volume of 50 mm^3 to 150 mm^3 they were randomized into two groups of ten to obtain a group average starting tumor volume of 114.4 mm^3. Mice were then treated with either a vehicle control or 12.5 mg/kg of Conjugate 38. All dosing was carried out twice a week intravenously for three weeks, with five total doses being administered. Tumor volumes of the mice were measured. Final study measurements were taken on Day 19, at which point the study was terminated due to vehicle control tumor volumes approaching IACUC limits.

[2] = tested on: LS174t colon tumor xenograft; assay: LS174t colon tumor xenograft model, efficacy; type: in vivo, mice; details: FIG. 3A, in words
[3] = tested on: H460 lung cancer xenograft; assay: H460 lung cancer xenograft model; type: in vivo, mice; details: FIG. 2, in words
PI3K = assay: Cell free PI3K enzyme assay; type: biochemical; details: FIG. 6, in words
Text: Therefore, conjugating a PI3K enzyme inhibitor payload to a HSP90 targeting ligand masked the PI3K enzyme inhibition.

[4] = tested on: BT474 (breast cancer) tumor xenograft; assay: BT474 breast cancer xenograft; type: in vivo, mice; details: Conjugate 38 IV 25 mg/kg vs Copanlisib 6 mg/kg, FIG. 3C
Protocol: (§1) PIK3A mutations occur in about 15% to 30% of breast, endometrial and colon cancers. In additional to LS174t model, other xenograft models harboring common PIK3CA mutations were chosen for testing. In one study, mice bearing SKOV3 (ovarian cancer) tumor xenograft were treated with IV dose of Conjugate 38 at 25 mg/kg and Copanlisib at 6 mg/kg. Doses were selected based on the maximum tolerated dose. In another study, mice bearing BT474 (breast cancer) tumor xenograft were treated with IV dose of Conjugate 38 at 25 mg/kg and Copanlisib at 6 mg/kg.

[5] = Glucose levels post dosing in mice; type: in vivo; details: FIG. 7, in words
Text: In an in vivo study in mice, glucose levels were monitored post PI3K inhibitor (Copanlisib) and Conjugate 38 dosing. […] Therefore, conjugating a PI3K enzyme inhibitor payload to a HSP90 targeting ligand reduced the normal tissue activity of glucose increase in mice.

pAKT (S473) = assay: LS174t tumor xenograft, pharmacodynamic response; type: in vivo, mice; details: through the course of 48 h, FIG. 5, in words
NCI-H460 cells = assay: NCI-H460 tumor cell cytotoxicity assay (CellTiter-Glo); type: cell-based; details: Homo sapiens, NCI-H460, 48 h
Protocol: NCI-H460 cells (non-small cell lung cancer) were plated at 500 cells per well and incubated for 20-24 hrs at 37° C. at 5% CO2. Post cell incubation, compounds were reconstituted in DMSO to a stock concentration of 200 uM. A compound plate was then prepared containing a 10 point dilution in RPMI+10% FBS+0.25% DMSO. 5 uL of the dilution was then added for a final working concentration range of 10 uM to 0.0005 uM. Compounds and cells were then incubated for 48 hrs. Cells were then analyzed by CellTiter-Glo for ATP levels and percent inhibition calculated.

[6] = tested on: SKOV3 (ovarian cancer) tumor xenograft; assay: SKOV3 ovarian cancer xenograft; type: in vivo, mice; details: Conjugate 38 IV 25 mg/kg vs Copanlisib 6 mg/kg, FIG. 3B
Protocol: as §1

[7] = type: in vivo, mice; details: LS174t xenograft, FIG. 4
Protocol: Accumulation and retention of Conjugate 38 was tested in this tumor xenograft model.

human total EbB2/Her2 = assay: HER2 degradation assay (ELISA) in BT474 cells; type: cell-based; details: BT-474, 16 hrs, read-out: Her2 Degradation IC50 Abs IC50
Protocol: BT474 (breast cancer) cells were plated at 12,000 cells per well and incubated for 20-24 hrs at 37° C. at 5% CO2. Post cell incubation, compounds were reconstituted in DMSO to a stock concentration of 5 mM. A compound plate was then prepared containing a 10 point dilution in DMSO. 2 uL of these dilutions were then added to the cells for a final working concentration of 5 uM to 0.0003 uM. Compounds and cells were incubated for 16 hrs. Media was then removed, cells washed, lysed, and analyzed for human total EbB2/Her2 levels by ELISA.

H460 mouse tumor PK = type: in vivo, mice; details: for concentration at 96 h / concentration at 144 h: mouse, in vivo, 25 mg/kg, 25 mg/kg IV, read-out: Conjugate 38 Conc. in H460 Mouse Tumor
Protocol: Conjugate and unconjugated payload accumulation at 96 and 144 h in H460 tumor-bearing mice. Conjugate 38 was dosed at 25 mg/kg intravenously.

[8] = Caco-2 cell monolayer permeability assay; type: in vitro ADME, human; details: human
Text: (§2) In order to test the ability of the payloads and/or conjugates to enter cells, a cell monolayer assay was utilized employing Caco-2 cells (a human epithelial colorectal adenocarcinoma cell line).
(§3) Experimental Procedure: Caco-2 cells grown in tissue culture flasks are trypsinized, suspended in medium, and the suspensions were applied to wells of a Millipore 96 well Caco-2 plate. The cells are allowed to grow and differentiate for three weeks, feeding at 2-day intervals. For Apical to Basolateral (A→B) permeability, the test agent is added to the apical (A) side and amount of permeation is determined on the basolateral (B) side; for Basolateral to Apical (B→A) permeability, the test agent is added to the B side and the amount of permeation is determine on the A side.

Caco-2 cells = assay: Caco-2 cell monolayer permeability assay; type: in vitro ADME, human; details: Caco-2
Text: as §2, §3

In the case of `CCNC(=O)c1nnc(-c2cc(C(C)C)c(O)cc2O)n1-c1ccc(CN2CCN(C(=O)Cc3ccc(OC(=O)N4CCN(CCCOc5ccc6c(c5OC)N=C(NC(=O)c5cnc(N)nc5)N5CCN=C65)CC4)cc3)CC2)cc1` [Compound 38], the tumor growth inhibition [1] is reported as 70.8%, the “efficacy (tumor growth inhibition) in LS174t xenograft” value [2] is reported as “significant tumor growth inhibition” and the “efficacy compared with combination therapy of copanlisib and ganetespib” value ([2]; LS174t xenograft) is reported as “worked much better than a combination therapy comprising copanlisib and ganetespib”. The “efficacy (tumor volumes) in H460 xenograft” value [3] was “superior to Copanlisib alone or ganetespib alone”, the “PI3K enzyme inhibition compared with payload” value (PI3K) was “much less active than its PI3K enzyme inhibitor payload” and the “tumor growth inhibition compared to Copanlisib” value [4] was “statistically significant increase in tumor growth inhibition”. The “glucose concentration after dosing” value [5] was “lower glucose concentrations than mice treated with the PI3K inhibitor payload”, the “inhibition of PI3K shown by pAKT (S473)” value (pAKT (S473)) was “significant reduction of pAKT (S473)” and the IC50 (NCI-H460 cells; n = 1, read-out: H460 in vitro cytotoxicity) was 8.2 nM. The IC50 (NCI-H460 cells; n = 2, read-out: H460 in vitro cytotoxicity) was 7.4 nM, the “tumor growth inhibition compared to Copanlisib” value [6] was “statistically significant increase in tumor growth inhibition” and the “time remaining in the tumor xenograft and releasing active PI3K inhibitor payload” value [7] was greater than 96 h. For the same compound, the IC50 (human total EbB2/Her2) was 39 nM, the “accumulation and retention in xenograft tumor tissue” value (H460 mouse tumor PK; H460 tumor-bearing mice, in words) was “accumulated and was retained in xenograph tumor tissue” and the concentration at 96 h (H460 mouse tumor PK; Animal ID 1) was 6.2 µM. For the same compound, the concentration at 96 h (H460 mouse tumor PK; Animal ID 2) was 7.6 µM, the concentration at 96 h (H460 mouse tumor PK; Animal ID 3) was 6.25 µM and the concentration at 96 h (H460 mouse tumor PK; Mean) was 6.68 µM. For the same compound, the concentration at 144 h (H460 mouse tumor PK; Animal ID 1) was 0.84 µM, the concentration at 144 h (H460 mouse tumor PK; Animal ID 2) was 3.61 µM and the concentration at 144 h (H460 mouse tumor PK; Animal ID 3) was 1.57 µM. For the same compound, the concentration at 144 h (H460 mouse tumor PK; Mean) was 2.01 µM.
With `COc1c(OCCCN2CCNCC2)ccc2c1N=C(NC(=O)c1cnc(N)nc1)N1CCN=C21` [Compound 27A] the Papp A→B ([8]; Caco-2, A to B direction) was 0.0032 ×10⁻⁶ cm/s, the Papp B→A ([8]; Caco-2, B to A direction) was 0.0162 ×10⁻⁶ cm/s and the permeability in words (Caco-2 cells) was “very low permeability”.
